Values quoted from earlier work, collected in patent publication US20090047276A1, “METHODS FOR […] OR TISSUE RE[…] A […]” (UNIVERSITY OF WASHINGTON, priority 2007, published 2009).
pEC50: −log10 of the molar value.

Assays:
[1] = test system: GSK-3; conditions: literature values (Ring et al. 2003; Cline et al. 2002); read-out: half-maximal effective concentration [EC50]
[2] = test system: GSK-3; conditions: literature values (Ring et al. 2003; Cline et al. 2002)

O=[N+]([O-])c1ccc(NCCNc2ncc(-c3ncc[nH]3)c(-c3ccc(Cl)cc3Cl)n2)nc1 [CHIR-837]
pEC50 [1]: 6.43 | selectivity for GSK-3 [2]: > 5,000 fold
